Data as given in ChEMBL document CHEMBL1201862, “PubChem BioAssay data set” (2004).
Active and inactive are the calls of the source.

Tests used:
A549 = assay: A549 cell toxicity, dose response, cytotoxicity control, plate reader, cherry-pick samples (AID 687028); type: functional, cell-based; conditions: Homo sapiens
[1] = miR-122 activators in hepatoma reporter cells, dose response, cell-based, Huh7 psiCHECK-miR122, Renilla luciferase, cherry-picked (AID 651956); type: functional;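 note: huh7 hepatoma cells stably carrying a psiCHECK-2 miR-122 sensor plasmid; renilla luciferase signal reporting endogenous miR-122 activity after 48 h compound exposure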
Caspase-6 = target: T1, Caspase-6 (Homo sapiens, UniProt P55212); assay: human caspase-6 inhibitors, dose response, biochemical, VEID-R110 fluorescence, dry powder retest (AID 743332)
T1 sequence (P55212 whole entry): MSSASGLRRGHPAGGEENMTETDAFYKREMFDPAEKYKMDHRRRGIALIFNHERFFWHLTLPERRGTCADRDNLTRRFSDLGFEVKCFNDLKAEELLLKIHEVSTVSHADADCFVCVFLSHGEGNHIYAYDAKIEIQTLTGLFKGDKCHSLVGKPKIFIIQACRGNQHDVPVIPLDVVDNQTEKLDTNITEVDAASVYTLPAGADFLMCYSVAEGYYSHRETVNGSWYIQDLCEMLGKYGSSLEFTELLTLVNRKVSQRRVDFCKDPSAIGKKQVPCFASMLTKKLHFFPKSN

[2] = HEK293 cell cytotoxicity, dose response, cytotoxicity control, cherry-picks, set 5 (AID 1053117); type: functional, cell-based
[3] = HepG2 cell cytotoxicity, dose response, cytotoxicity control, cherry-picks, set 5 (AID 1053118); type: functional, cell-based
[4] = HeLa cell cytotoxicity, dose response, cytotoxicity control, 24 h, plate reader, dry powder (AID 686928); type: functional, cell-based
[5] = A549 cell cytotoxicity, dose response, cytotoxicity control, cherry-picks, 26 µM top dose (AID 1053119); type: functional, cell-based
[6] = target: Potassium channel subfamily K member 3 (Homo sapiens, UniProt O14649); assay: TASK1 (KCNK3) potassium channel inhibitors, SAR follow-up, CHO cells, FluxOR thallium flux (AID 652212); type: functional
Chain of Potassium channel subfamily K member 3 (O14649 whole entry): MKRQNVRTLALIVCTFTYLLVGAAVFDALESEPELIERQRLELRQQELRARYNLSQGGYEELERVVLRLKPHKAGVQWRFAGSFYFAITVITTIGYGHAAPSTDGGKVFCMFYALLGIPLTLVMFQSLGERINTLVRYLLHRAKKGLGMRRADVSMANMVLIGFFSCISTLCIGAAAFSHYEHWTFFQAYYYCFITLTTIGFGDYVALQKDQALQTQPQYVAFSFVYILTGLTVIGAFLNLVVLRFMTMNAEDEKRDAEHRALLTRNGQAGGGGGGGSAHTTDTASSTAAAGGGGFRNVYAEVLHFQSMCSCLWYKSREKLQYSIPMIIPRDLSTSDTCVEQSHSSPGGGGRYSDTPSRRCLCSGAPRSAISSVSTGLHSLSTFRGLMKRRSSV

[7] = target: Potassium channel subfamily K member 9 (Homo sapiens, UniProt Q9NPC2); assay: TASK3 (KCNK9) channel inhibitors, thallium flux, SAR follow-up, selectivity assay for TASK1 inhibitor project, cell-based, FluxOR thallium flux, concentration-response (AID 652211); type: functional;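 note: potency is for inhibitors of the channel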
Chain of Potassium channel subfamily K member 9 (Q9NPC2 whole entry): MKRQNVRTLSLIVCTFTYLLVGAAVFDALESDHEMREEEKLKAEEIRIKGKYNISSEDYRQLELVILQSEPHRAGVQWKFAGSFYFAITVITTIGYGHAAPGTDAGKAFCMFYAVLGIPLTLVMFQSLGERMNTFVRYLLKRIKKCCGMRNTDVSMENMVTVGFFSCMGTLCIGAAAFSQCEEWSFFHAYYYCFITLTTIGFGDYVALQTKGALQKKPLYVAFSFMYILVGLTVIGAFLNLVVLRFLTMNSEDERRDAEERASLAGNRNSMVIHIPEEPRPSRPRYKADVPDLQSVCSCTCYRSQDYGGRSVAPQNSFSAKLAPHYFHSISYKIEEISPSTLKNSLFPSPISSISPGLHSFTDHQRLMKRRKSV

[8] = LGR2 antagonists, dose response, cell-based, HEK293, CRE-luciferase reporter, cherry pick (AID 743342); type: functional

SMILES: CCCCCCCCN1C(=O)[C@H](CC(=O)NCCC(C)C)C[C@@]2(C(=O)OCC)CCCC=C12
- AC50 (A549): 21 µM (active)

SMILES: C[C@H](CO)N1C[C@H](C)[C@H](CN(C)CC2CCCCC2)OCCCC[C@H](C)Oc2ccc(NC(=O)Nc3cccc4ccccc34)cc2C1=O
- AC50 [1]: 3.25 µM (active)

SMILES: O=C(c1ccc(-n2cccc2)cc1)N1CCN(S(=O)(=O)c2ccccc2)CC1
- AC50 (Caspase-6): 23.9 µM (active)

SMILES: C[C@@H]1CN([C@@H](C)CO)C(=O)c2cc(-c3ccccc3)cnc2O[C@H]1CN(C)Cc1ccccc1
- AC50 [2]: > 52 µM (inactive)
- AC50 [3]: > 52 µM (inactive)

SMILES: CC(C)(C)COC(=O)CSc1n[nH]c(=O)[nH]c1=O
- AC50 [4]: > 76 µM (inactive)

SMILES: CN(C)C(=O)c1ccc(-c2ccc3c(c2)[C@H]2[C@H](CCN2C(=O)c2ccc(F)cc2)[C@H](CO)N3C)cc1
- AC50 [5]: 43.6 µM (active)

SMILES: CCOc1ccccc1NC(=O)c1cccc(NC(=O)c2ccc(C)cc2)c1
- IC50 [6]: 0.134 µM (active)
- IC50 [7]: 14.7 µM (active)

SMILES: C[C@H](CO)N1C[C@H](C)[C@H](CN(C)C(=O)Nc2ccc3c(c2)OCO3)OCCCC[C@H](C)Oc2ccc(NC(=O)NC3CCCCC3)cc2C1=O
- AC50 [8]: 9.97 µM (active)
